Reference: patent US20260055103A1, “2,3,4,9-TETRAHYDRO-1H-PYRIDO[3,4-B]INDOLE DERIVATIVES AS ESTROGEN RECEPTOR MODULATORS FOR THE TREATMENT OF CANCER” (Olema Pharmaceuticals, Inc., priority 2022, published 2026)

Target: T1, estrogen receptor (Homo sapiens, UniProt P03372)
T1 construct: endogenous in cells; host or cells: ECC-1 cells
T1 sequence (P03372 1-595): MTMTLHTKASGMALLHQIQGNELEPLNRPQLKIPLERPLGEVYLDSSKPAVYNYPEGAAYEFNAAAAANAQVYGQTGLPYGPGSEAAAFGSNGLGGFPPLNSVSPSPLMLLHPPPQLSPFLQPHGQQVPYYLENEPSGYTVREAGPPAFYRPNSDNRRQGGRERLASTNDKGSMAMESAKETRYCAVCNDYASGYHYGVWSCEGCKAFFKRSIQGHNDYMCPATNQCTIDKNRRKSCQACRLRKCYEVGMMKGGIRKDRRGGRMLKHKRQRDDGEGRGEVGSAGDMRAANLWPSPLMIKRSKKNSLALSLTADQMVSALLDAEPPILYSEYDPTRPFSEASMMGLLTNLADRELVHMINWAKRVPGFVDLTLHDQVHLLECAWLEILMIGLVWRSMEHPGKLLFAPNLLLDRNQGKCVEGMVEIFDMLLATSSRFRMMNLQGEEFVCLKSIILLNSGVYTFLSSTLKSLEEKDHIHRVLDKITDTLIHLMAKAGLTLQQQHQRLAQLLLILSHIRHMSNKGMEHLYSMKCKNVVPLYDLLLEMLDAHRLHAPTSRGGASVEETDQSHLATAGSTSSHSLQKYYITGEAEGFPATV
Assay: Alkaline phosphatase (AP) assay in ECC-1 cells, agonist mode (no E2) and antagonist mode (500 pM E2)
Assay type: cell-based
Settings: 3 days, AP activity normalized to 500 pM E2 alone, agonist mode without E2, antagonist mode with 500 pM E2
Experimental: ECC-1 cells were trypsinized and resuspended in hormone-depleted media and plated at a density of 15 k cells per well into a 96-well plate for at least 4 hours. Cells were treated with test compounds in the absence of E2 (for agonist mode) or in the presence of 500 pM E2 (for antagonist mode) for 3 days and plates were subsequently frozen at −80° C. Thawed plates were incubated with a chromogenic substrate of AP, p-nitrophenyl phosphate (Thermo Fisher Scientific), for 40 minutes at 42° C., and absorbances were read at 405 nm. AP activity was normalized to the activity of 500 pM E2 alone.
The compound numbers correspond to the compound numbers of Table 1 and 2. Compounds having an activity designated as “+” provided estrogen receptor agonism having (i) at least 80% increase in the E2-normalized signal in the AP assay (agonist mode) and (ii) no more than 80% reduction in the E2-normalized signal in the AP assay (antagonist mode). Compounds having an activity designated as “++” provided estrogen receptor antagonism having (i) between 10% and 80% increase in the E2-normalized signal in the AP assay (agonist mode) and (ii) between 10% and 80% reduction in the E2-normalized signal in the AP assay (antagonist mode).

Row | Compound | Activity (estrogen receptor modulation, agonism and antagonism)
1 | C[C@@H]1Cc2c([nH]c3ccccc23)[C@@H](c2ccc(CC3CN(CCCF)C3)s2)N1CC(F)(F)CO [Example I-16, 2,2-difluoro-3-[(1S,3R)-1-(5-{[1-(3-fluoropropyl)azetidin-3-yl]methyl}thiophen-2-yl)-3-methyl-1H,2H,3H,4H,9H-pyrido[3,4-b]indol-2-yl]propan-1-ol] | +++ (estrogen receptor antagonism (i) with pIC50 greater than 7.5 and at least a 10% reduction in the E2-normalized signal in the AP assay (antagonist mode); and no more than 10% increase in E2-normalized signal in the AP assay (agonist mode))
2 | C[C@@H]1Cc2c([nH]c3ccccc23)[C@@H](c2ccc(CC3CN(CCCF)C3)s2)N1CC(F)F [Example I-17, 3-({5-[(1S,3R)-2-(2,2-difluoroethyl)-3-methyl-1H,2H,3H,4H,9H-pyrido[3,4-b]indol-1-yl]thiophen-2-yl}methyl)-1-(3-fluoropropyl)azetidine] | +++ (estrogen receptor antagonism (i) with pIC50 greater than 7.5 and at least a 10% reduction in the E2-normalized signal in the AP assay (antagonist mode); and no more than 10% increase in E2-normalized signal in the AP assay (agonist mode))
3 | C[C@@H]1Cc2c([nH]c3ccccc23)[C@@H](c2ccc(CC3CN(CCC(F)F)C3)s2)N1CC(C)(C)F [Example I-18, 1-(3,3-difluoropropyl)-3-({5-[(1S,3R)-2-(2-fluoro-2-methylpropyl)-3-methyl-1H,2H,3H,4H,9H-pyrido[3,4-b]indol-1-yl]thiophen-2-yl}methyl)azetidine] | ++ (estrogen receptor antagonism having (i) between 10% and 80% increase in the E2-normalized signal in the AP assay (agonist mode) and (ii) between 10% and 80% reduction in the E2-normalized signal in the AP assay (antagonist mode))
4 | CC1CN(CCCc2ccc([C@@H]3c4[nH]c5ccccc5c4C[C@@H](C)N3CC(C)(C)F)s2)C1 [Example I-19, 1-(3-{5-[(1S,3R)-2-(2-fluoro-2-methylpropyl)-3-methyl-1H,2H,3H,4H,9H-pyrido[3,4-b]indol-1-yl]thiophen-2-yl}propyl)-3-methylazetidine] | ++ (estrogen receptor antagonism having (i) between 10% and 80% increase in the E2-normalized signal in the AP assay (agonist mode) and (ii) between 10% and 80% reduction in the E2-normalized signal in the AP assay (antagonist mode))
5 | C[C@@H]1Cc2c([nH]c3ccccc23)[C@@H](c2ccc(CC3CN(CCCF)C3)s2)N1CC(F)(F)F [Example I-20, 1-(3-fluoropropyl)-3-({5-[(1S,3R)-3-methyl-2-(2,2,2-trifluoroethyl)-1H,2H,3H,4H,9H-pyrido[3,4-b]indol-1-yl]thiophen-2-yl}methyl)azetidine] | ++ (estrogen receptor antagonism having (i) between 10% and 80% increase in the E2-normalized signal in the AP assay (agonist mode) and (ii) between 10% and 80% reduction in the E2-normalized signal in the AP assay (antagonist mode))
6 | C[C@@H]1Cc2c([nH]c3ccccc23)[C@@H](c2ccc(CCCN3CC(CF)C3)s2)N1CC(C)(C)F [Example I-21, 1-(3-{5-[(1S,3R)-2-(2-fluoro-2-methylpropyl)-3-methyl-1H,2H,3H,4H,9H-pyrido[3,4-b]indol-1-yl]thiophen-2-yl}propyl)-3-(fluoromethyl)azetidine] | +++ (estrogen receptor antagonism (i) with pIC50 greater than 7.5 and at least a 10% reduction in the E2-normalized signal in the AP assay (antagonist mode); and no more than 10% increase in E2-normalized signal in the AP assay (agonist mode))
7 | C[C@@H]1Cc2c([nH]c3ccccc23)[C@@H](c2ccc(CC3CN(CCCF)C3)s2)N1CC(C)(F)F [Example I-22, 3-({5-[(1S,3R)-2-(2,2-difluoropropyl)-3-methyl-1H,2H,3H,4H,9H-pyrido[3,4-b]indol-1-yl]thiophen-2-yl}methyl)-1-(3-fluoropropyl)azetidine] | ++ (estrogen receptor antagonism having (i) between 10% and 80% increase in the E2-normalized signal in the AP assay (agonist mode) and (ii) between 10% and 80% reduction in the E2-normalized signal in the AP assay (antagonist mode))
8 | C[C@@H]1Cc2c([nH]c3ccccc23)[C@@H](c2ccc(CC3CN(CCCF)C3)s2)N1CC(F)(F)CF [Example I-23, (1S,3R)-1-(5-((1-(3-fluoropropyl)azetidin-3-yl)methyl)thiophen-2-yl)-3-methyl-2-(2,2,3-trifluoropropyl)-2,3,4,9-tetrahydro-1H-pyrido[3,4-b]indole] | ++ (estrogen receptor antagonism having (i) between 10% and 80% increase in the E2-normalized signal in the AP assay (agonist mode) and (ii) between 10% and 80% reduction in the E2-normalized signal in the AP assay (antagonist mode))
9 | C[C@@H]1Cc2c([nH]c3ccccc23)[C@@H](c2ccc(CC3CN(CC4COC4)C3)s2)N1CC(C)(C)F [Example I-24, (1S,3R)-2-(2-fluoro-2-methylpropyl)-3-methyl-1-(5-((1-(oxetan-3-ylmethyl)azetidin-3-yl)methyl)thiophen-2-yl)-2,3,4,9-tetrahydro-1H-pyrido[3,4-b]indole] | ++ (estrogen receptor antagonism having (i) between 10% and 80% increase in the E2-normalized signal in the AP assay (agonist mode) and (ii) between 10% and 80% reduction in the E2-normalized signal in the AP assay (antagonist mode))
10 | C[C@@H]1Cc2c([nH]c3ccccc23)[C@@H](c2ccc(CCCN3CC[C@@H](CF)C3)s2)N1CC(C)(C)F [Example I-25, (1S,3R)-2-(2-fluoro-2-methylpropyl)-1-(5-(3-((R)-3-(fluoromethyl)pyrrolidin-1-yl)propyl)thiophen-2-yl)-3-methyl-2,3,4,9-tetrahydro-1H-pyrido[3,4-b]indole] | ++ (estrogen receptor antagonism having (i) between 10% and 80% increase in the E2-normalized signal in the AP assay (agonist mode) and (ii) between 10% and 80% reduction in the E2-normalized signal in the AP assay (antagonist mode))
11 | C[C@@H]1CCN(CCCc2ccc([C@@H]3c4[nH]c5ccccc5c4C[C@@H](C)N3CC(C)(C)F)s2)C1 [Example I-26, (3R)-1-(3-{5-[(1S,3R)-2-(2-fluoro-2-methylpropyl)-3-methyl-1H,2H,3H,4H,9H-pyrido[3,4-b]indol-1-yl]thiophen-2-yl}propyl)-3-methylpyrrolidine] | ++ (estrogen receptor antagonism having (i) between 10% and 80% increase in the E2-normalized signal in the AP assay (agonist mode) and (ii) between 10% and 80% reduction in the E2-normalized signal in the AP assay (antagonist mode))
12 | C[C@@H]1Cc2c([nH]c3ccccc23)[C@@H](c2ccc(CC3CN(CCCF)C3)s2)N1CC(F)(F)C(F)F [Example I-27, (1S,3R)-1-(5-((1-(3-fluoropropyl)azetidin-3-yl)methyl)thiophen-2-yl)-3-methyl-2-(2,2,3,3-tetrafluoropropyl)-2,3,4,9-tetrahydro-1H-pyrido[3,4-b]indole] | ++ (estrogen receptor antagonism having (i) between 10% and 80% increase in the E2-normalized signal in the AP assay (agonist mode) and (ii) between 10% and 80% reduction in the E2-normalized signal in the AP assay (antagonist mode))
13 | C[C@@H]1Cc2c([nH]c3ccccc23)[C@@H](c2ccc(CC3CN(CCCF)C3)s2)N1CC(F)(F)C(F)(F)F [Example I-28, (1S,3R)-1-(5-((1-(3-fluoropropyl)azetidin-3-yl)methyl)thiophen-2-yl)-3-methyl-2-(2,2,3,3,3-pentafluoropropyl)-2,3,4,9-tetrahydro-1H-pyrido[3,4-b]indole] | ++ (estrogen receptor antagonism having (i) between 10% and 80% increase in the E2-normalized signal in the AP assay (agonist mode) and (ii) between 10% and 80% reduction in the E2-normalized signal in the AP assay (antagonist mode))
14 | C[C@@H]1Cc2c([nH]c3ccccc23)[C@@H](c2cnc(CC3CN(CCCF)C3)s2)N1CC(F)F [Example I-29] | +++ (estrogen receptor antagonism (i) with pIC50 greater than 7.5 and at least a 10% reduction in the E2-normalized signal in the AP assay (antagonist mode); and no more than 10% increase in E2-normalized signal in the AP assay (agonist mode))
